# According to patent publication US7875604B2, “Compounds that inhibit HIV particle formation” (University of Virginia Patent Foundation, priority 2004, dated 2011):
# Like-named read-outs stand apart in the source and are kept apart here.
# Assays:
# [1] = MTS staining for cell viability in U1 cell assay; format: cell-based; conditions: human, U1 cells stimulated with TNF-α, read-out: TC50
# Experimental: At the time of the assay, cells were collected by centrifugation and counted by hemacytometer. If cell viability by Trypan Blue dye exclusion was less than 70% the assay was terminated. The cells were adjusted to 5×10^4 cells/mL and 100 μL placed in 96 well plates with 100 μL media containing a final concentration of 5 ng/mL TNF-α and the test compound. Cultures were incubated for 3 days and supernatants harvested. Compound toxicity was determined by MTS dye reduction. Virus expression was measured by supernatant reverse transcriptase activity.
# At assay termination, the assay plates were stained with the soluble tetrazolium-based dye MTS (CellTiter 96 Reagent, Promega) to determine cell viability and quantify compound toxicity as described for the PBMC assay.
# Compounds were tested in the U1 latency assay using the maximum high-test concentration possible based on the supplied stocks which are listed in table 3. Compounds were tested using the maximum high-test concentration possible based on the supplied stocks. Compounds were prepared at a 2× high-test concentration by combining drug stock with tissue culture media at a ratio of 5 μL of drug to 995 μL of media. This 2× high-test sample was subsequently serially diluted in tissue culture media using 1/2 log dilutions. This series of 2× concentrated drug was subsequently diluted 1:1 by combining with an equal volume of cells in media in the 96-well plates used for the assay. Temacrazine a known inhibitor of HIV transcription was used as a control compound that is active in the post-integration part of the HIV life cycle.
# (§1) Compounds were tested using the maximum high-test concentration possible based on the supplied stocks. Compounds were prepared at a 2× high-test concentration by combining drug stock with tissue culture media at a ratio of 5 μL of drug to 995 μL of media. This 2× high-test (HT) sample was subsequently serially diluted in tissue culture media using 1/2 log dilutions. This series of 2× concentrated drug was subsequently diluted 1:1 by combining with an equal volume of cells in media in the 96-well plates used for the assay.
# HIV-1 BR/93/021 = experiment: Anti-HIV efficacy in fresh human PBMCs, reverse transcriptase readout, HIV-1 BR/93/021; format: cell-based; conditions: for TI (TC50/IC50): HIV-1 BR/93/021, PBMCs; for IC50: HIV-1 BR/93/021, fresh human PBMCs, seven days, RT activity
# Experimental: Compounds were evaluated for their ability to inhibit HIV replication in fresh human PBMCs. The assay was performed as follows.
# Fresh human PBMCs, seronegative for HIV and HBV, were isolated from screened donors (Interstate Blood Bank, Inc. Memphis, Tenn.). Cells were pelleted/washed 2-3 times by low speed centrifugation and re-suspension in PBS to remove contaminating platelets. The Leukophoresed blood was then diluted 1:1 with Dulbecco's Phosphate Buffered Saline (DPBS) and layered over 14 mL of Lymphocyte Separation Medium (LSM; Cellgro® by Mediatech, Inc.; density 1.078+/−0.002 g/ml; Cat.#85-072-CL) in a 50 mL centrifuge tube and then centrifuged for 30 minutes at 600×g. Banded PBMCs were gently aspirated from the resulting interface and subsequently washed 2× with PBS by low speed centrifugation. After the final wash, cells were enumerated by trypan blue exclusion and re-suspended at 1×10^7 cells/mL in RPMI 1640 supplemented with 15% Fetal Bovine Serum (FBS), and 2 mM L-glutamine, 4 μg/mL Phytohemagglutinin (PHA-P, Sigma). The cells were allowed to incubate for 48-72 hours at 37° C. After incubation, PBMCs were centrifuged and resuspended in RPMI 1640 with 15% FBS, 2 mM L-glutamine, 100 U/mL penicillin, 100 μg/mL streptomycin, 10 μg/mL gentamycin, and 20 U/mL recombinant human IL-2 (R&D Systems, Inc). IL-2 is included in the culture medium to maintain the cell division initiated by the PHA mitogenic stimulation. PBMCs were maintained in this medium at a concentration of 1-2×10^6 cells/mL with biweekly medium changes until used in the assay protocol. Cells were kept in culture for a maximum of two weeks before being deemed too old for use in assays and discarded. Monocytes were depleted from the culture as the result of adherence to the tissue culture flask.
# (§2) For the standard PBMC assay, PHA-P stimulated cells from at least two normal donors were pooled (mixed together), diluted in fresh medium to a final concentration of 1×10^6 cells/mL, and plated in the interior wells of a 96 well round bottom microplate at 50 μL/well (5×10^4 cells/well) in a standard format developed by the Infectious Disease Research department of Southern Research Institute. Pooling (mixing) of mononuclear cells from more than one donor is used to minimize the variability observed between individual donors, which results from quantitative and qualitative differences in HIV infection and overall response to the PHA and IL-2 of primary lymphocyte populations. Each plate contains virus/cell control wells (cells plus virus), experimental wells (drug plus cells plus virus) and compound control wells (drug plus media without cells, necessary for MTS monitoring of cytotoxicity). Since HIV-1 is not cytopathic to PBMCs, this allows the use of the same assay plate for both antiviral activity and cytotoxicity measurements. Test drug dilutions were prepared at a 2× concentration in microtiter tubes and 100 μL of each concentration was placed in appropriate wells using the standard format. 50 μL of a predetermined dilution of virus stock was placed in each test well (final MOI≅0.1). The PBMC cultures were maintained for seven days following infection at 37° C., 5% CO2. After this period, cell-free supernatant samples were collected for analysis of reverse transcriptase activity as a measure of virus release. Following removal of supernatant samples, compound cytotoxicity was measured by addition of MTS to the plates for determination of cell viability. Wells were also examined microscopically and any abnormalities were noted.
# A microtiter plate-based reverse transcriptase (RT) reaction was utilized (Buckheit et al., AIDS Research and Human Retroviruses 7:295-302, 1991). Tritiated thymidine triphosphate (3H-TTP, 80 Ci/mmol, NEN) was received in 1:1 dH2O:Ethanol at 1 mCi/mL. […]
# [2] = MTS staining for PBMC viability to measure cytotoxicity; format: cell-based, human; conditions: human
# Experimental: as §2
# At assay termination, assay plates were stained with the soluble tetrazolium-based dye MTS (CellTiter 96 Reagent, Promega) to determine cell viability and quantify compound toxicity. The mitochondrial enzymes of metabolically active cells metabolize MTS to yield a soluble formazan product. This allows the rapid quantitative analysis of cell viability and compound cytotoxicity. […] At termination of the assay, 20 μL of MTS reagent was added per well. The microtiter plates were then incubated 4-6 hrs at 37° C. The incubation intervals were chosen based on empirically determined times for optimal dye reduction. Adhesive plate sealers were used in place of the lids, the sealed plate was inverted several times to mix the soluble formazan product and the plate was read spectrophotometrically at 490/650 nm with a Molecular Devices Vmax or SpectraMaxPlus plate reader.
# as §1, with “tested in the PBMC assay” for “tested”, “stocks which are listed in table 3.” for “stocks.”, “high-test” for “high-test (HT)”
# [3] = Human immunodeficiency virus 1, PBMC, 168 h
# [4] = PBMC plates with HIV-1 BR/93/021, MTS, read-out: TC50
# [5] = PBMC plates with HIV-1 NL4-3, MTS, read-out: TC50
molecule,measurement,setting,value
"Fc1ccc(Nc2ncnc3ccccc23)cc1Cl [Compound 109020, N-(3-chloro-4-fluorophenyl)-N-(4-quinazolinyl)amine]",CC50 at 3 days,"[1]; Table 6, MTS",> 40.8 µM
same,TI (TC50/IC50),HIV-1 BR/93/021,>3.09
same,IC50,HIV-1 BR/93/021; [3],13.2 µM
same,CC50 at 7 days,[2]; TC50,> 40.8 µM
"COc1ccc2cc3c(N)n[nH]c3nc2c1 [Compound 89246, 7-methoxy-1H-pyrazolo[3,4-b]quinolin-3-ylamine]",CC50 at 3 days,"[1]; Table 6, MTS",24.6 µM
same,CC50 at 3 days,"[1]; analogs, Table 8, MTS",29 µM
same,TI (TC50/IC50),HIV-1 BR/93/021,69.57
same,IC50,HIV-1 BR/93/021; [3],0.47 µM
same,CC50 at 7 days,[2]; [4],32.7 µM
same,CC50 at 7 days,[2]; [5],21.9 µM
"CS(=O)(=O)c1ncc(-c2ccc(Br)cc2)cn1 [Compound 107129, -(4-bromophenyl)-2-(methylsulfonyl)pyrimidine]",CC50 at 3 days,"[1]; Table 6, MTS",> 53 µM
same,TI (TC50/IC50),HIV-1 BR/93/021,3.48
same,IC50,HIV-1 BR/93/021; [3],1.8 µM
same,CC50 at 7 days,[2]; [4],6.26 µM
same,CC50 at 7 days,[2]; [5],4.13 µM
"2-chloro-N-(4-methylphenyl)-4-(trifluoromethyl)-1,3-thazole-5-carboxamide [Compound 91161]",TI (TC50/IC50),HIV-1 BR/93/021,12.01
same,IC50,HIV-1 BR/93/021,1.94 µM
"COc1ccc2nc(C(F)(F)F)c(C#N)c(N)c2c1 [Compound 104366, 4-amino-6-methoxy-2-(trifluoromethyl)-3-quinolinecarbonitrile]",CC50 at 3 days,"[1]; Table 6, MTS",12.4 µM
same,TI (TC50/IC50),HIV-1 BR/93/021,38.91
same,IC50,HIV-1 BR/93/021; [3],0.64 µM
same,CC50 at 7 days,[2]; [4],24.9 µM
same,CC50 at 7 days,[2]; [5],22 µM
"COc1cccc(NC(=O)c2cc(Cl)nnc2Cl)c1 [Compound 107740, 3,6-dichloro-N-(3-methoxyphenyl)-4-pyridazinecarboxamide]",CC50 at 3 days,"[1]; Table 6, MTS",> 29.3 µM
same,TI (TC50/IC50),HIV-1 BR/93/021,94.00
same,IC50,HIV-1 BR/93/021; [3],0.2 µM
same,CC50 at 7 days,[2]; [4],18.8 µM
same,CC50 at 7 days,[2]; [5],14.4 µM
"CCc1c(C)nc2sc(C(N)=O)c(N)c2c1C [Compound 103833, 3-amino-5-ethyl-4,6-dimethylthieno[2,3-b]pyridine-2-carboxamide]",CC50 at 3 days,"[1]; Table 6, MTS",> 37.6 µM
same,TI (TC50/IC50),HIV-1 BR/93/021,>129.66
same,IC50,HIV-1 BR/93/021; [3],0.29 µM
same,CC50 at 7 days,[2]; TC50,> 37.6 µM
"CCc1c(C(=O)Nc2ccccc2)c(C)nc2sc(C(N)=O)c(N)c12 [Compound 75168, 3-amino-4-ethyl-6-methyl-N˜5˜-phenylthieno[2,3-b]pyridine-2,5-dicarboxamide]",TI (TC50/IC50),HIV-1 BR/93/021,>12.52
same,IC50,HIV-1 BR/93/021; [3],2.14 µM
same,CC50 at 7 days,[2]; [4],> 26.8 µM
same,CC50 at 7 days,[2]; [5],> 26.8 µM
